Some results are limits rather than exact numbers.

The assay addresses T1, ctdWDR91 (Homo sapiens, UniProt A4D1P6).
T1 sequence (A4D1P6 392-747): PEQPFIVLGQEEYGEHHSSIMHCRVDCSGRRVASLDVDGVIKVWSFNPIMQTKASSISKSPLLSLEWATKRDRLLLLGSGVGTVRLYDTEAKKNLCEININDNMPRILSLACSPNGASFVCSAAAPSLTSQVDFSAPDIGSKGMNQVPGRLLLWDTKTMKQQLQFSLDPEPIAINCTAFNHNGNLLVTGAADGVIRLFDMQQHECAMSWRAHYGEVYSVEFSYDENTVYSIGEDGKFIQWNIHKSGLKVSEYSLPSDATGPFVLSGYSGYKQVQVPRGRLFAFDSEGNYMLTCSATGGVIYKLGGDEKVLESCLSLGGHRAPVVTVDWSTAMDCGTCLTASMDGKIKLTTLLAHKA
Description: biochemical.
The Kd is the free concentration of one partner at which half of the binding sites on the other are occupied at equilibrium, for simple one-to-one binding. A higher Kd goes with a looser complex. Turning to `O=C(NC(CCO)c1ccc(Cl)cc1)c1ccc(CN2CCCC2=O)cc1` (centres unmarked) [MRGG045272a], the Kd was more than 45 µM.
`CN(CC1CCN(Cc2ccccc2)C1)C(=O)Cc1cccc(O)c1` (centres unmarked) [MRGG044819a]: the Kd was more than 45 µM.
`Cc1cccc(C#CCN2C[C@@H]3C[C@H]2CN3C2CC2)c1` [MRGG045294a] gave a Kd of more than 45 µM.
The molecule `CN1CC(N(C)C(=O)c2cc(-n3cccc3)ccn2)C1` [MRGG045326a] returned a Kd of more than 45 µM.
As for `Cc1nc(N(C)C)sc1CCNc1cc(C(F)(F)F)cc(C#N)n1` [MRGG044814a], the dissociation constant (Kd) is more than 45 µM.
The result for `CN1C(=O)CC(C(=O)NCc2ccc(O)c(O)c2)C1c1ccc(Cl)c(Cl)c1` (centres unmarked) [MRGG045316a] reads more than 45 µM; that for `O=C1CC(c2nccs2)NC(=O)N1CC1CCN(c2ccc(Cl)cc2)C1` (centres unmarked) [MRGG045332a], more than 45 µM; that for `CCCC(NC(=O)c1cc(O)c(O)cc1C)C(=O)N(C)C` (centres unmarked) [MRGG045321a], more than 45 µM.
The result for `O=C(NCC1CCN(C2CC2)C1)c1ccc(Cl)cc1` (centres unmarked) [MRGG044816a] reads more than 45 µM; that for `Cc1cc(O)c(O)cc1C(=O)N[C@H]1CC(=O)N(C)[C@@H]1c1ccc(Cl)cc1` [MRGG045330a], more than 45 µM.
In the case of `O=C(NC1CCc2ccccc21)c1ccc(Cl)cc1` (centres unmarked) [MRGG044788a] it was more than 45 µM; in that of `COC(=O)c1cccc(-c2cccc(NC3CCN(C4CC4)C3)c2)c1` (centres unmarked) [MRGG045314a], more than 45 µM; in that of `CNC(=O)c1cc(C)nc(N2CCC3(CC2)CN(C)c2ccccc23)n1` [MRGG045287a], more than 45 µM.
Consider `Cc1ccc(N)cc1C(=O)N1C2C=C(c3ccccc3)CC1CC2` (centres unmarked) [MRGG044818aAD], for which the equilibrium dissociation constant (Kd) was more than 45 µM.
Regarding `CC(C)(C)OC(=O)N1C[C@@H](Cc2ccccc2)[C@H](O)C1` [MRGG044809a], the Kd was more than 45 µM.
For `Cc1[nH]c2ccccc2c1CC(=O)N(C)C1CCN(C2CC2)C1` (centres unmarked) [MRGG045290a], the Kd was more than 45 µM.
In the case of `CC1CN(C2CC2)CC1NC(=O)c1cc2cc(Br)ccc2o1` (centres unmarked) [MRGG044827a] it was more than 45 µM.
The result for `O=C(NCc1ccc2cnccc2c1)c1snc(O)c1Cl` [MRGG045296a] reads more than 45 µM; that for `N#Cc1cc(CNc2ccccc2CN2CCNC2=O)ccc1F` [MRGG044804a], more than 45 µM; that for `CN(C)c1nc2ccc(NCc3cc4c(cc3O)OCO4)cc2o1` [MRGG044799a], more than 45 µM.
In the case of `O=C(NC(CO)c1ccc(Cl)cc1)c1cccc2cn[nH]c12` (centres unmarked) [MRGG044832a] it was more than 45 µM.
In turn, `CC(NC(=O)c1ccc2c(=O)n3c(nc2c1)CCC3)c1ccc(Cl)cc1` (centres unmarked) [MRGG044821a] gave a Kd of more than 45 µM.
As for `CN(Cc1ccccc1OCc1ccccc1F)C1CCN(C2CC2)C1` (centres unmarked) [MRGG045303a], the Kd is more than 45 µM.
The molecule `O=C(NC(CCO)c1ccc(Cl)c(Cl)c1)c1ccc2c(c1)NC(=O)C1CCCN21` (centres unmarked) [MRGG045335a] returned a Kd of more than 45 µM.
In turn, `O=C(CSc1nnc(-c2ccc(Cl)cc2)o1)NCc1ccc(O)c(O)c1` [MRGG045283a] gave a Kd of more than 45 µM.
In the case of `CN(Cc1ccccc1-n1cccc1)C(=O)C1CCCN1C1CC1` (centres unmarked) [MRGG045309a] it was more than 45 µM; in that of `CC(NC(=O)C1Cc2ccccc2O1)c1cccc(N2CCCC2)c1` (centres unmarked) [MRGG044823a], more than 45 µM; in that of `N#Cc1cccc2c1CCN(C(=O)NCC1CCN(c3ccc(Cl)cc3)C1)C2` (centres unmarked) [MRGG045297a], more than 45 µM.
In the case of `Cc1ccccc1N1CCC(CNC(=O)Cc2ccc(C(F)(F)F)cc2)C1` (centres unmarked) [MRGG044786a] it was more than 45 µM; in that of `N#Cc1cc(Br)cc(N2CCCC2)c1` [MRGG044812a], more than 45 µM.
The result for `COc1cccc2c1OCCCN(C(=O)c1cn3ccsc3n1)C2` [MRGG044787a] reads more than 45 µM.
For `CN(C(=O)c1c(C2CC2)nc2sccn12)C1CCN(C2CC2)C1` (centres unmarked) [MRGG045293a], the Kd was more than 45 µM.
`CC(NC(=O)c1cccc(N2CCCC2)c1)(C(=O)O)c1ccccc1` (centres unmarked) [MRGG044796a] yielded a Kd of more than 45 µM.
The result for `CNC(=O)c1cccnc1N1C[C@@H]2CN(C)C[C@]2(C)C1` [MRGG045301a] reads more than 45 µM; that for `c1ccc(-n2ncc3c(NCC4CCN(C5CC5)C4)ncnc32)cc1` (centres unmarked) [MRGG045311a], more than 45 µM; that for `CC1(C)CN(C(=O)c2snc(O)c2Cl)c2ccc(Cl)cc21` [MRGG045317a], more than 45 µM.
In the case of `Cc1nn(C)cc1C1=NOC(C(=O)N[C@H](C)c2ccc(Br)cc2)C1` (some centres unmarked) [MRGG045282a] it was more than 45 µM; in that of `O=C(CCN1C[C@@H]2C[C@H]1CN2C1CC1)NCc1ccccc1Cl` [MRGG045281a], more than 45 µM; in that of `c1ccc2c(c1)OCCCC2NC1CCN(C2CC2)C1` (centres unmarked) [MRGG044835a], more than 45 µM.
As for `Cc1ccc(CN2CCC(CN(C)C3CC3)C2)s1` (centres unmarked) [MRGG045327a], the Kd is more than 45 µM.
The result for `c1nc(NC2CCN(C3CC3)C2)c2ccsc2n1` (centres unmarked) [MRGG044830a] reads more than 45 µM; that for `CC1CC(NCC2CCCCCC2)CN1C1CC1` (centres unmarked) [MRGG045339a], more than 45 µM.
In the case of `NC(=O)C1(NC(=O)c2ccc3cccnc3c2)Cc2ccccc2C1` [MRGG045265a] it was more than 45 µM; in that of `Cc1c(C#N)c2ccccc2n1CC(=O)N1CCc2ccccc2C1` [MRGG044779a], more than 45 µM.
On to `N#Cc1cc(C(F)(F)F)cc(N2CCCN(C3CC3)CC2)n1` [MRGG045289a], for which the Kd was more than 45 µM.
The result for `CNC(=O)[C@@H](NC(=O)c1ccc2[nH]ccc2n1)C(C)C` [MRGG044793a] reads more than 45 µM; that for `Cc1ccc(C(=O)NC2CC2)cc1NCc1cc(C#N)cc(C#N)c1` [MRGG045299a], more than 45 µM.
The result for `COc1ccc(C(NC(=O)CN2CCn3ncnc3C2)c2ccc(OC)cc2)cc1` [MRGG044794a] reads more than 45 µM; that for `CC1c2cccn2CCN1C(=O)c1cc(Br)cc(N2CCCC2)c1` (centres unmarked) [MRGG044826a], more than 45 µM.
In turn, `Cc1ccc(C(=O)NC(c2ccc(Cl)cc2)C2CC2)cc1[N+](=O)[O-]` (centres unmarked) [MRGG044833a] returned a Kd of more than 45 µM.
The result for `CN(C)C1(CNC(=O)c2ccc3oc(=O)[nH]c3c2)Cc2ccccc2C1` [MRGG044797a] reads more than 45 µM; that for `Cc1cc(OCc2ccccc2)nc(N(C)C2CCN(C3CC3)C2)n1` (centres unmarked) [MRGG045325a], more than 45 µM.
`CC(NC(=O)c1ccc(CNC(N)=O)cc1)c1ccc(Cl)c(Cl)c1` (centres unmarked) [MRGG044836a] registered a Kd of more than 45 µM.
Take `O=C(NC1(c2ccc(F)cc2)COC1)c1ccc2cnccc2c1` [MRGG045267a]: the dissociation constant (Kd) was more than 45 µM.
The result for `CC(NC(=O)CCNC(=O)c1ccc(Br)cc1)c1ccc(Cl)cc1` (centres unmarked) [XSGG051538e] reads more than 45 µM; that for `Cc1cc2ccccc2n1CC(=O)Nc1cc(C(N)=O)ccc1N1CCCC1` [MRGG044789a], more than 45 µM.
As for `Cc1nn2cc(C(=O)N(C)CCc3cccc(C#N)c3)nc2s1` [MRGG045278a], the Kd was more than 45 µM.
Molecule `N#Cc1cccc(CNC(=O)C2=NN(c3ccccc3)C(=O)CN2)c1` [MRGG044820a] registered a Kd of more than 45 µM.
Regarding `COc1ccc(C(NC(=O)C2CC(C)=NO2)c2ccc(Cl)cc2)cc1` (centres unmarked) [MRGG045275a], the dissociation constant Kd was more than 45 µM.
The result for `Cc1nc2sccn2c1C(=O)N(C)Cc1cccc(F)c1` [UBGG013392b] reads more than 45 µM; that for `Cc1cc(C#N)nc(NC2CC(C)N(C3CC3)C2)n1` (centres unmarked) [MRGG044798a], more than 45 µM.
The result for `O=C(Nc1cccc2cnccc12)c1cccc([N+](=O)[O-])c1` [MRGG044720b] reads more than 45 µM.
